Results taken from patent US9598424B2 (Takeda Pharmaceutical Company Limited, priority 2014, dated 2017).

How the values were obtained:
TBK1 = target: T1, TBK1 (Homo sapiens, UniProt Q9UHD2); assay: Inhibition of TBK1 in Cells (TLR3 driven ISRE β-lactamase reporter assay); format: cell-based; conditions: poly IC-LMW stimulation 16 hrs; -log(EC50), EC50 molar; read-out: Inhibition of TBK1 in cells pEC50 (EC) (converted)
T1 construct: host or cells: RA1-ISRE beta-lactamase reporter cells
T1 sequence (Q9UHD2 1-729): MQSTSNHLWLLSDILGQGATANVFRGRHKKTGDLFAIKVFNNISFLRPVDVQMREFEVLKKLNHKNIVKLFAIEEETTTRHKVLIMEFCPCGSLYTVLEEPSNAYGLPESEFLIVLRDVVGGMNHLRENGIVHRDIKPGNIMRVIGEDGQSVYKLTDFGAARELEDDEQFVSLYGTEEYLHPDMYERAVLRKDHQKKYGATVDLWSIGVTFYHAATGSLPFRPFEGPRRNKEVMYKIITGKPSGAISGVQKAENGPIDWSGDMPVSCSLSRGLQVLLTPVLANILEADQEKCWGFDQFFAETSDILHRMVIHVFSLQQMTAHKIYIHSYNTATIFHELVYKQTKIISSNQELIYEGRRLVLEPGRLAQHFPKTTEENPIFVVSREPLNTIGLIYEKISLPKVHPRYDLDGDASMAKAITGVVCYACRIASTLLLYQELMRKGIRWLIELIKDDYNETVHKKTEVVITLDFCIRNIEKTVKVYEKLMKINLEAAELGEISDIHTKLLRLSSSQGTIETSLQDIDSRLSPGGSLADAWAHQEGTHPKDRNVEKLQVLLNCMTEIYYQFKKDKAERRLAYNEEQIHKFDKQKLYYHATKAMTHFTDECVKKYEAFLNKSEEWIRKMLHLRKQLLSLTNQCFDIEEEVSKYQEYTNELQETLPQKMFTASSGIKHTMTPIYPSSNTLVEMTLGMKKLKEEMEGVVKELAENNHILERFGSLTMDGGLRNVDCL
Procedure: TBK1 inhibition is determined using a TLR3 driven RA1-ISRE β-lacatamase reporter assay (Life Technologies). In the assay 50,000 cells/well are plated in black clear bottom 384 well plate. Each test compound is prepared in DMSO using 2.5-fold serial dilutions for 11 data points, which are then added to the media. Cells are stimulated with 0.15 mg/ml poly IC-LMW (Invivogen) for 16 hrs. Reporter activity is detected using the LiveBLAzer-FRET B/G CCF4-AM substrate (Life Technologies) and the plate is read using the Spectramax M5 instrument. Corresponding EC50 values are calculated by non-linear curve fitting of the compound concentrations and percent of inhibition to the standard EC50 equation and reported as pEC50, i.e., −log(EC50), where EC50 is the molar concentration.

Full length human TBK1 = target: T2, Full length human TBK1 (Homo sapiens, UniProt Q9UHD2); assay: Inhibition of TBK1 Enzyme (Caliper microfluidic assay); format: biochemical; conditions: 25 μM ATP, 60 min at RT; -log(IC50), IC50 molar; read-out: TBK1 Inhibition (pIC50) (converted)
T2 construct: Full length human TBK1 with an N-terminal His-tag; His-tag (N); made in house; host or cells: Sf9 insect cells (baculovirus, pFastBac1)
T2 sequence (Q9UHD2 1-729): T1 sequence (Q9UHD2 1-729)
Procedure: Full length human TBK1 with an N-terminal His-tag was cloned into the pFastBacl vector and was transfected into Sf9 cells. 72 hours later the virus was harvested and amplified through two additional rounds of infections. Then 400 ml of the resulting virus stock was used to infect 10L of Sf9 cells at a density of 2×10^6 cells/ml. Cell pellets were harvested 48 hours post infection and were lysed by freeze-thaw, homogenization and sonication in binding buffer (25 mM Tris pH7.6, 1 M NaCl, 10 mM imidazole, 0.5 mM TCEP) plus 0.1% Triton X-100 and complete protease inhibitor cocktail. The lysate was spun and the supernatant was purified with a HisTrap FF crude and a Superdex 200 pg column.
TBK1 inhibition is determined using a 384 well plate format in buffer containing 20 mM Hepes, pH 7.4, 10 mM MgCl2, 1 mM EDTA, 0.01% Brij-L23, 1 mM DTT. Each test compound is prepared in DMSO using 2.5-fold serial dilutions for 11 data points, which are added to the buffer so that each dilution contains 1% DMSO. To each well is added 2 μL of 1 μm 5FAM-DRHDSGLDSMKDE-NH2 (in buffer), 2 μL of diluted test compound (1% DMSO in buffer), and 5 μL of 3 nM TBK1 and 25 μM ATP (in buffer). The reaction mixture is incubated at RT for 60 min, and quenched by adding 20 mM Hepes, pH 7.4, 10 mM MgCl2, 1 mM EDTA, 0.01% Brij-L23, 1 mM DTT+25 mM EDTA. To quantify the fluorescent-labeled substrate and product following reaction, the test plate is loaded on a Caliper LC-3000, which measures percent of conversion by microfluidic-based separation. Corresponding IC50 values are calculated by non-linear curve fitting of the compound concentrations and percent of inhibition to the standard IC50 equation and reported as pIC50, i.e., −log(IC50), where IC50 is the molar concentration.

| SMILES | EC50 (TBK1) [nM] | IC50 (Full length human TBK1) [nM] |
| --- | --- | --- |
| N#CCC(=O)Nc1cn2cc(-c3csc(C(=O)NCC(F)(F)F)c3)ccc2n1 [Example 17, 4-(2-(2-cyanoacetamido)imidazo[1,2-a]pyridin-6-yl)-N-(2,2,2-trifluoroethyl)thiophene-2-carboxamide] | 2950 | 79.4 |
| O=C(CF)Nc1cn2cc(-c3csc(C(=O)NCC(F)(F)F)c3)ccc2n1 [Example 16, 4-(2-(2-fluoroacetamido)imidazo[1,2-a]pyridin-6-yl)-N-(2,2,2-trifluoroethyl)thiophene-2-carboxamide] | 1050 | 79.4 |
| C[C@@H](NC(=O)c1cn(-c2ccc3nc(NC(=O)C4CC4)cn3c2)cn1)C(F)(F)F [Example 43] | 2340 | 50.1 |
| O=C(NCC1CC1)c1cc(-c2ccc3nc(NC(=O)C4CC4)cn3c2)cs1 [Example 65] | 676 | 20 |
| Cc1sc(C(=O)NCC(F)(F)F)cc1-c1ccc2nc(NC(=O)C3CC3)cn2n1 [Example 23, 4-(2-(cyclopropanecarboxamido)imidazo[1,2-b]pyridazin-6-yl)-5-methyl-N-(2,2,2-trifluoroethyl)thiophene-2-carboxamide] | 5370 | 79.4 |
| O=C(NC1CCCC1=O)c1nc(-c2ccc3nc(NC(=O)C4CC4)cn3c2)cs1 (stereo not shown) [Example 91, 4-(2-(cyclopropanecarboxamido)imidazo[1,2-a]pyridin-6-yl)-N-(2-oxocyclopentyl)thiazole-2-carboxamide] | 5130 | 200 |
| CC(C)CNC(=O)c1cc(-c2ccc3nc(NC(=O)C4CC4)cn3c2)cs1 [Example 63, 4-(2-(cyclopropanecarboxamido)imidazo[1,2-a]pyridin-6-yl)-N-isobutylthiophene-2-carboxamide] | 372 | 15.8 |
| COCCNC(=O)c1cc(-c2ccc3nc(NC(=O)C4CC4)cn3c2)cs1 [Example 73, 4-(2-(cyclopropanecarboxamido)imidazo[1,2-a]pyridin-6-yl)-N-(2-methoxyethyl)thiophene-2-carboxamide] | 1660 | 63.1 |
| N[C@H]1CCCC(F)(F)[C@@H]1NC(=O)c1cc(-c2ccc3nc(NC(=O)C4CC4)cn3c2)cs1 [Example 126, N-((1R,6S)-6-amino-2,2-difluorocyclohexyl)-4-(2-(cyclopropanecarboxamido)imidazo[1,2-a]pyridin-6-yl)thiophene-2-carboxamide] | 55 | 10 |
| O=C(Nc1cn2cc(-c3csc(C(=O)N4CC(CO)C4)n3)ccc2n1)C1CC1 [Example 124, N-(6-(2-(3-(hydroxymethyl)azetidine-1-carbonyl)thiazol-4-yl)imidazo[1,2-a]pyridin-2-yl)cyclopropanecarboxamide] | 2140 | 251 |
| O=C(Nc1cn2cc(-c3cc(C(=O)N4CCC(F)CC4)[nH]n3)ccc2n1)C1CC1 [Example 105, N-(6-(5-(4-fluoropiperidine-1-carbonyl)-1H-pyrazol-3-yl)imidazo[1,2-a]pyridin-2-yl)cyclopropanecarboxamide] | 5370 | 316 |
| O=C(N[C@H]1COC[C@H]1O)c1nc(-c2ccc3nc(NC(=O)C4CC4)cn3c2)cs1 [Example 108, 4-(2-(cyclopropanecarboxamido)imidazo[1,2-a]pyridin-6-yl)-N-((3S,4S)-4-hydroxytetrahydrofuran-3-yl)thiazole-2-carboxamide] | 4370 | 79.4 |
| C[C@H](NC(=O)c1cc(-c2ccc3nc(NC(=O)C4CC4)cn3c2)cs1)C(F)(F)F [Example 80, (S)-4-(2-(cyclopropanecarboxamido)imidazo[1,2-a]pyridin-6-yl)-N-(1,1,1-trifluoropropan-2-yl)thiophene-2-carboxamide] | 1380 | 63.1 |
| O=C(Nc1cn2cc(-c3csc(C(=O)N4CCC(O)C4)n3)ccc2n1)C1CC1 (stereo not shown) [Example 112, N-(6-(2-(3-hydroxypyrrolidine-1-carbonyl)thiazol-4-yl)imidazo[1,2-a]pyridin-2-yl)cyclopropanecarboxamide] | 4370 | 79.4 |
| O=C(Nc1cn2cc(-c3csc(C(=O)N4CCC[C@@H]4C(F)(F)F)n3)ccc2n1)C1CC1 [Example 93, (R)-N-(6-(2-(2-(trifluoromethyl)pyrrolidine-1-carbonyl)thiazol-4-yl)imidazo[1,2-a]pyridin-2-yl)cyclopropanecarboxamide] | 110 | 7.94 |
| O=C(NCC(O)C(F)(F)F)c1nc(-c2ccc3nc(NC(=O)C4CC4)cn3c2)cs1 (stereo not shown) [Example 115, 4-(2-(cyclopropanecarboxamido)imidazo[1,2-a]pyridin-6-yl)-N-(3,3,3-trifluoro-2-hydroxypropyl)thiazole-2-carboxamide] | 1510 | 79.4 |
| O=C(NCC(F)(F)F)c1cnn(-c2ccc3nc(NC(=O)C4CC4)cn3c2)c1 [Example 40, 1-(2-(cyclopropanecarboxamido)imidazo[1,2-a]pyridin-6-yl)-N-(2,2,2-trifluoroethyl)-1H-pyrazole-4-carboxamide] | 708 | 31.6 |
| O=C(NC1CCOCC1)c1cc(-c2ccc3nc(NC(=O)C4CC4)cn3c2)cs1 [Example 66, 4-(2-(cyclopropanecarboxamido)imidazo[1,2-a]pyridin-6-yl)-N-(tetrahydro-2H-pyran-4-yl)thiophene-2-carboxamide] | 2040 | 100 |
| O=C(NCC(F)(F)F)c1ncc(-c2ccc3nc(NC(=O)C4CC4)cn3c2)[nH]1 [Example 50, 4-(2-(cyclopropanecarboxamido)imidazo[1,2-a]pyridin-6-yl)-N-(2,2,2-trifluoroethyl)-1H-imidazole-2-carboxamide] | 479 | 12.6 |
| O=C(N[C@H]1CCOC1)c1cc(-c2ccc3nc(NC(=O)C4CC4)cn3c2)[nH]n1 [Example 53, (S)-5-(2-(cyclopropanecarboxamido)imidazo[1,2-a]pyridin-6-yl)-N-(tetrahydrofuran-3-yl)-1H-pyrazole-3-carboxamide] | 25100 | 158 |
| CC(=O)N1CCC(NC(=O)c2cc(-c3ccc4nc(NC(=O)C5CC5)cn4c3)cs2)C1 (stereo not shown) [Example 79, N-(1-acetylpyrrolidin-3-yl)-4-(2-(cyclopropanecarboxamido)imidazo[1,2-a]pyridin-6-yl)thiophene-2-carboxamide] | 22900 | 79.4 |
| O=C(Nc1cn2cc(-c3csc(C(=O)N4CC(F)(F)C4)c3)ccc2n1)C1CC1 [Example 77, N-(6-(5-(3,3-difluoroazetidine-1-carbonyl)thiophen-3-yl)imidazo[1,2-a]pyridin-2-yl)cyclopropanecarboxamide] | 1660 | 63.1 |
| O=C(NC1COCC1O)c1cc(-c2ccc3nc(NC(=O)C4CC4)cn3c2)cs1 (stereo not shown) [Example 84, 4-(2-(cyclopropanecarboxamido)imidazo[1,2-a]pyridin-6-yl)-N-(4-hydroxytetrahydrofuran-3-yl)thiophene-2-carboxamide] | 2820 | 31.6 |
